Measurements taken from US10653666B1, “Cardioprotective nano-pharmaceutical formulation” (King Abdulaziz University, priority 2020, dated 2020).

Experiments:
Type in all cases: in vivo, rat
[1] = tested on: MetS animals (high-fructose high-salt diet); assay: Invasive real-time cardiac contractility recording in metabolic syndrome rats; conditions: vs MetS; for Cardiac contractility (contractility index): oral 25 mg/kg/day in the last 6 weeks of 12 weeks diet
Method: (§1) Rats used in this study were male Wistar 6-8 weeks old rats weighing 180-200 g (King Fand Medical Research Center, King Abdulaziz University, Jeddah, Saudi Arabia). Clear polypropylene cages were used to house 4 rats each and included access to purified water and standard rodent pellets. Constant animal housing conditions applied constituting of alternating 12 hours light and dark, a temperature of 22±3° C., a relative humidity of 50-60% and adequate ventilation. Experimental protocol was approved by the Research Ethical Committee, Faculty of Pharmacy, King Abdulaziz University, Jeddah, Saudi Arabia and was conducted in accordance with the Saudi Arabia Research Bioethics and Regulations.
Animals were randomly divided into 5 experimental groups; Control (C) rats received regular tap water and food pellets. MetS group (M) in which fructose (10%) was added to drinking water and NaCl (3%) to food pellets. This regimen began in 6-week old rats and continued for 12 weeks. Standard quercetin group (MQ) administered 25 mg/kg quercetin suspension every day in the last 6 weeks of fructose and salt administration. Nano formula vehicle group (MN) received the same volumes of SNEDDS ingredients (Pumpkin seed oil, D-α-tocopheryl polyethylene glycol succinate (TPGS) and PEG 200) without quercetin every day in the last 6 weeks of fructose and salt administration. The nanoformula group (MNQ) administered 25 mg/kg of quercetin in the form of nano-pharmaceutical formulation every day in the last 6 weeks of fructose and salt administration.
Invasive real-time recording of cardiac contractility was carried out according to the method described in previous publication from our laboratories (El-Bassossy et al., 2017). After urethane anaethesia, animals were placed on controlled heating pads, and body temperature, measured via a rectal probe, was maintained at 37° C. A microtip pressure transducer (SPR-320; Millar Instruments, Houston, Tex., USA) was inserted into the right carotid artery and advanced into the left ventricle under pressure control. After stabilization for 5 min, the signals were continuously recorded at a sampling rate of 1000 s−1. The microtip catheter was connected to a PowerLab Data Interface Module connected to a PC running LabChart professional software (version 7.3; ADI Instruments, Bella Vista, Australia) containing a blood pressure module.

[2] = tested on: MetS animals (high-fructose high-salt diet); assay: Cardiac conductivity (surface ECG) recording in metabolic syndrome rats; conditions: oral 25 mg/kg/day in the last 6 weeks, vs MetS, p<0.05
Method: Rats used in this study were male Wistar 6-8 weeks old rats weighing 180-200 g (King Fand Medical Research Center, King Abdulaziz University, Jeddah, Saudi Arabia). Clear polypropylene cages were used to house 4 rats each and included access to purified water and standard rodent pellets. Constant animal housing conditions applied constituting of alternating 12 hours light and dark, a temperature of 22±3° C., a relative humidity of 50-60% and adequate ventilation. Experimental protocol was approved by the Research Ethical Committee, Faculty of Pharmacy, King Abdulaziz University, Jeddah, Saudi Arabia and was conducted in accordance with the Saudi Arabia Research Bioethics and Regulations. Animals were randomly divided into 5 experimental groups; Control (C) rats received regular tap water and food pellets. MetS group (M) in which fructose (10%) was added to drinking water and NaCl (3%) to food pellets. This regimen began in 6-week old rats and continued for 12 weeks. Standard quercetin group (MQ) administered 25 mg/kg quercetin suspension every day in the last 6 weeks of fructose and salt administration. […] The standard limb lead II of the surface ECG was recorded by the Powerlab system (ADI Instruments) connected to a PC running LabChart professional software (version 7.3) containing an ECG module, which detects different components of the ECG. […]

[3] = tested on: MetS animals (high-fructose high-salt diet); assay: Blood pressure in metabolic syndrome rats; conditions: oral 25 mg/kg/day in the last 6 weeks, vs MetS, p<0.05
Method: as §1
Animals were randomly divided into 5 experimental groups; Control (C) rats received regular tap water and food pellets. MetS group (M) in which fructose (10%) was added to drinking water and NaCl (3%) to food pellets. […]
Invasive real-time recording of cardiac contractility was carried out according to the method described in previous publication from our laboratories (El-Bassossy et al., 2017). After urethane anaethesia, animals were placed on controlled heating pads, and body temperature, measured via a rectal probe, was maintained at 37° C. […] After stabilization for 5 min, the signals were continuously recorded at a sampling rate of 1000 s−1. […]

[4] = tested on: MetS animals (high-fructose high-salt diet); assay: Overall protection from cardiovascular complication of metabolic syndrome in rats; conditions: oral 25 mg/kg/day in the last 6 weeks
Method: Rats used in this study were male Wistar 6-8 weeks old rats weighing 180-200 g (King Fand Medical Research Center, King Abdulaziz University, Jeddah, Saudi Arabia). Clear polypropylene cages were used to house 4 rats each and included access to purified water and standard rodent pellets. Constant animal housing conditions applied constituting of alternating 12 hours light and dark, a temperature of 22±3° C., a relative humidity of 50-60% and adequate ventilation. Experimental protocol was approved by the Research Ethical Committee, Faculty of Pharmacy, King Abdulaziz University, Jeddah, Saudi Arabia and was conducted in accordance with the Saudi Arabia Research Bioethics and Regulations. Animals were randomly divided into 5 experimental groups; Control (C) rats received regular tap water and food pellets. MetS group (M) in which fructose (10%) was added to drinking water and NaCl (3%) to food pellets. This regimen began in 6-week old rats and continued for 12 weeks. Standard quercetin group (MQ) administered 25 mg/kg quercetin suspension every day in the last 6 weeks of fructose and salt administration. Nano formula vehicle group (MN) received the same volumes of SNEDDS ingredients (Pumpkin seed oil, D-α-tocopheryl polyethylene glycol succinate (TPGS) and PEG 200) without quercetin every day in the last 6 weeks of fructose and salt administration. […]

[5] = oral 25 mg/kg/day in the last 6 weeks, p<0.05

O=c1c(O)c(-c2ccc(O)c(O)c2)oc2cc(O)cc(O)c12 [regular size quercetin, quercetin]
Cardiac contractility (contractility index) ([1]; p<0.05, 25 mg/kg/day): did not significantly affect
Cardiac contractility (contractility index) ([1]; p<0.05, listed as suspension of quercetin, 25 mg/kg/day): failed to affect
Diastolic function (−dP/dt, dp/dt min) [1, 5]: did not significantly affect
Left ventricular systolic function (dP/dt max) [1, 5]: did not significantly affect
JT interval [2]: did not significantly improve
QTc interval [2]: did not significantly improve
Diastolic blood pressure (DBP) [3]: partially reduced
Systolic blood pressure (SBP) [3]: partially reduced
Cardiovascular function / cardioprotective effect (overall) [4]: failed to completely protect
